Values after ≈ are worked out from the molar mass of the structure shown. Like-named read-outs stand apart in the source and are kept apart here. Blank lines part the entries; values can stand above or below the compound they belong to. Bridge positions count the residues as written; N and C are the ends. Square brackets hold non-standard residues; d marks the D form. Peptide text beside a SMILES is read from it. * marks the point of attachment. d(aThr) = C[C@@H](O)[C@@H](N)C(=O)O; Palmitoyl = CCCCCCCCCCCCCCCC(=O)*; dPip = O=C(O)[C@H]1CCCCN1; hSer = N[C@@H](CCO)C(=O)O; Dap = NC[C@H](N)C(=O)O
How the values were obtained:
Bacillus subtilis [1] = experiment: Growth inhibitory zone assay; format: cell-based; details: mixed with B1 at 50 mM each, 12 hours, room temperature
Procedure: The antimicrobial activities of our peptide (B1) in combination with various boron species were tested by the growth inhibitory zone assay (FIG. 26). B1 was mixed with various boron species at 50 mM each (final concentration). These mixtures were then spotted on a lawn of Bacillus subtilis. After 12 hours of incubation at room temperature, combinations effective at inhibiting bacterial growth would appear as a circular zone.

Bacillus subtilis [2] = details: for MIC: no PBA; for antimicrobial activity: absence of PBA; for PBA dependence of bacterial growth suppression: with vs without PBA
Procedure: We then investigated the boron dependence of B1 by determining the MIC of B1 across […] of PBA concentrations (0.5 μg/mL to 100 μg/mL, FIG. 4B).

HEK293T cells = experiment: cells; format: cell-based; details: 24 h
Procedure: HEK293T cells were cultured in Dulbecco's Modified Eagle's Medium supplemented with 10% fetal bovine serum and 1% Antibiotic antimycotic at 37° C. under humidified atmosphere and 5% CO2. Cytotoxicity assays began by seeding 2×10^4 HEK293T cells per well in a 96-well plate. Cells were given 20 to 24 h to adhere, washed with fresh medium, and then a 2-fold dilution series of the compounds of interest were added. The highest concentration tested for S1, B1, and PBA were 128, 128, and 1,280 μg/mL, respectively; for the B1-plus-PBA series, the PBA concentration was held constant at 5 μg/mL while the B1 concentration varied. After incubation for 24 h, the medium was discarded, the cells rinsed with PBS buffer, and 100 μL of 0.5 mg/mL MTT in […] was added to each well. The plate was incubated for 2 h before discarding the MTT solution. The cells were wash with PBS, and then the resulting purple crystals were dissolved by DMSO (100 μL per well). Absorbance at 570 nm for each well was recorded, and cell viability (%) was calculated as the ratio of the absorbance the compound-treated well vs. the no-compound well. This assay was performed in triplicate.

B. cereus = experiment: Activity spectrum MIC; format: cell-based; details: PBA 50 μg/mL
E. faecalis = experiment: Activity spectrum MIC; format: cell-based; details: PBA 50 μg/mL
Rhodococcus hoagii = experiment: Activity spectrum MIC; format: cell-based; details: PBA 50 μg/mL
Staphylococcus species = experiment: Activity spectrum MIC; format: cell-based; details: PBA 50 μg/mL
Streptococcus species = experiment: Activity spectrum MIC; format: cell-based; details: PBA 50 μg/mL
Escherichia coli = experiment: Activity spectrum MIC; format: cell-based; details: PBA 50 μg/mL
Pseudomonas aeruginosa = experiment: Activity spectrum MIC; format: cell-based; details: PBA 50 μg/mL
[3] = test system: methicillin-resistant strains (MRSA); experiment: Activity spectrum MIC; format: cell-based, Staphylococcus; details: PBA 50 μg/mL
[4] = test system: vancomycin-resistant strains (VRE); experiment: Activity spectrum MIC; format: cell-based, Enterococcus; details: PBA 50 μg/mL
[5] = 31P NMR monitoring of complex formation; format: binding; details: B1/PBA/C10P 1:2:1, 10% D2O
Procedure: NMR experiments were conducted on a Bruker AVIII 400 (400 MHZ) spectrometer. Chemical shifts (δ) are relative to tetramethylsilane, boric acid, and phosphoric acid for ^1H, ^11B, and ^31P spectra, respectively. The ^11B spectrum of PBA (20 μL, 10.0 mg/mL) in 10% D2O (550 μL) was first obtained. Next, C10P (17 μL, 16 mg/mL) was added directly into the NMR tube, and both the ^11B and ^31P spectra were obtained. B1 (1.2 mg, powder) was then added, followed spectra acquisition. Finally, CaCl2) was added to the solution in the NMR tube, so that the final calcium concentration is ˜5 mM. Note that the ^31P spectrum of C10P alone was collected separately.
Mass spectrometry (MS) and nuclear magnetic resonance (NMR) offered additional evidence of complex formation at the molecular level. High-resolution native electrospray ionization mass spectrometry (HR-NESI-MS) is commonly used to study noncovalent interactions.^[15] Using HR-NESI-MS, we observed the expected m/z for binary, ternary, and quaternary complexes at both the positive and negative modes (FIGS. 5B and 5C, FIGS. 15-18 and FIGS. 23-24). We then performed phosphorous (^31P) and boron (^11B) NMR to monitor the complex formation process. […] When B1 was added to the C10P/PBA mixture, no phosphorous signal could be detected at δ 3 or greater, and two new peaks at δ 0.4 and 0.0 appeared. […]

SMILES: Nc1ccc(B(O)O)cc1 [4-aminophenylboronic acid]
- growth inhibitory zone, boron species in combination with B1 (Bacillus subtilis [1]): effective

SMILES: OB(O)c1ccncc1 [4-pyridylboronic acid]
- growth inhibitory zone, boron species in combination with B1 (Bacillus subtilis [1]): effective

- MIC (Bacillus subtilis [2]; [Ca2+]=0.5 mM): 16 µg/mL (≈ 12.7 µM)
- MIC (Bacillus subtilis [2]; calcium 5 mM): 4 µg/mL (≈ 3.17 µM)
SMILES: CCCCCCCCCCCCCCCC(=O)N[C@@H](CC(=O)O)C(=O)N[C@H]1CNC(=O)[C@@H]2CCCN2C(=O)[C@H]([C@@H](C)CC)NC(=O)[C@@H]([C@@H](C)O)NC(=O)CNC(=O)[C@H](CC(=O)O)NC(=O)CNC(=O)[C@H](CC(=O)O)NC(=O)CNC(=O)[C@H]2CCCCN2C1=O [S1, reference compound] (Palmitoyl-D[Dap][dPip]GDGDG[d(aThr)]IP; lactam 2-C (inferred))
- potency in the presence of PBA (Bacillus subtilis [2]; PBA 100 μg/mL (0.82 mM)): dramatically decreased

SMILES: COc1ccc(B(O)O)cc1 [4-methoxyphenylboronic acid]
- growth inhibitory zone, boron species in combination with B1 (Bacillus subtilis [1]): effective

SMILES: CSc1ccc(B(O)O)cc1 [4-(methylthio) phenylboronic acid]
- growth inhibitory zone, boron species in combination with B1 (Bacillus subtilis [1]): effective

SMILES: OB(O)c1ccc(F)cc1 [4-fluorophenylboronic acid]
- growth inhibitory zone, boron species in combination with B1 (Bacillus subtilis [1]): effective

SMILES: Cc1ccc(B(O)O)cc1 [4-tolylboronic acid]
- growth inhibitory zone, boron species in combination with B1 (Bacillus subtilis [1]): effective

SMILES: OB(O)c1ccccc1 [PBA, phenylboronic acid, reference compound]
- IC50 (HEK293T cells; Homo sapiens, HEK-293T): > 128 µg/mL
- growth inhibitory zone, boron species in combination with B1 (Bacillus subtilis [1]): effective

SMILES: COC(=O)c1ccc(B(O)O)cc1 [4-methoxycarbonyl phenylboronic acid]
- growth inhibitory zone, boron species in combination with B1 (Bacillus subtilis [1]): effective

- effect of calcium concentration on MIC (Bacillus subtilis [2]; calcium 5 to 0.5 mM, PBA present): unaffected
SMILES: CCCCCCCCCCCCCCCC(=O)N[C@@H](CCO)C(=O)N[C@H]1CNC(=O)[C@@H]2CCCN2C(=O)[C@H]([C@@H](C)CC)NC(=O)[C@@H]([C@@H](C)O)NC(=O)CNC(=O)[C@H](CO)NC(=O)CNC(=O)[C@H](CC(=O)O)NC(=O)CNC(=O)[C@H]2CCCCN2C1=O [B4] (Palmitoyl-[hSer][Dap][dPip]GDGSG[d(aThr)]IP; lactam 2-C)
- antimicrobial activity (Bacillus subtilis [2]; 5 mM calcium): weak antimicrobial activity
- antimicrobial activity (Bacillus subtilis [2]; no calcium supplements): none of them were active

SMILES: OB(O)c1cccnc1 [3-pyridylboronic acid]
- growth inhibitory zone, boron species in combination with B1 (Bacillus subtilis [1]): effective

SMILES: CCCCCCCCCCCCCCCC(=O)N[C@@H](CO)C(=O)N[C@H]1CNC(=O)[C@@H]2CCCN2C(=O)[C@H]([C@@H](C)CC)NC(=O)[C@@H]([C@@H](C)O)NC(=O)CNC(=O)[C@H](CO)NC(=O)CNC(=O)[C@H](CC(=O)O)NC(=O)CNC(=O)[C@H]2CCCCN2C1=O [B1] (Palmitoyl-S[Dap][dPip]GDGSG[d(aThr)]IP; lactam 2-C)
- dependence of antibacterial activity on calcium (Bacillus subtilis [2]; LB, PBA 50 μg/mL (0.41 mM), FIG. 4A): completely independent of calcium
- antimicrobial activity (Bacillus subtilis [2]; no calcium supplements): none of them were active
- response of antimicrobial activity to varying calcium concentration (Bacillus subtilis [2]; fixed PBA 100 μg/mL (0.82 mM)): no change
- antimicrobial activity when no calcium was added (Bacillus subtilis [2]; fixed PBA 100 μg/mL (0.82 mM), no calcium added): equally effective
- PBA dependence of bacterial growth suppression (Bacillus subtilis [2]): only able to suppress bacterial growth in the presence of PBA
- IC50 (HEK293T cells): greater than 128 μg/mL
- growth inhibition (B. cereus): inhibited the growth
- growth inhibition (E. faecalis): inhibited the growth
- growth inhibition (Rhodococcus hoagii): inhibited the growth
- growth inhibition (Staphylococcus species): inhibited the growth
- growth inhibition (Streptococcus species): inhibited the growth
- antibacterial activity (Escherichia coli): no activity
- antibacterial activity (Pseudomonas aeruginosa): no activity
- susceptibility [3]: similarly susceptible
- susceptibility [4]: similarly susceptible
- C10P sequestration [5]: sequestered all C10P

SMILES: Cc1cc(C)cc(B(O)O)c1 [3,5-dimethylphenylboronic acid]
- growth inhibitory zone, boron species in combination with B1 (Bacillus subtilis [1]): effective

SMILES: OB(O)c1ccc(O)cc1 [4-hydroxylphenylboronic acid]
- growth inhibitory zone, boron species in combination with B1 (Bacillus subtilis [1]): effective

SMILES: OB(O)c1cc(C(F)(F)F)cc(C(F)(F)F)c1 [3,5-(bis(trifluoromethyl)phenyl) boronic acid]
- growth inhibitory zone, boron species in combination with B1 (Bacillus subtilis [1]): effective

SMILES: CCCCCCCCCCCCCCCC(=O)N[C@@H](CO)C(=O)N[C@H]1CNC(=O)[C@@H]2CCCN2C(=O)[C@H]([C@@H](C)CC)NC(=O)[C@@H]([C@@H](C)O)NC(=O)CNC(=O)[C@H](CCO)NC(=O)CNC(=O)[C@H](CC(=O)O)NC(=O)CNC(=O)[C@H]2CCCCN2C1=O [B3, Ser-Dap-Pip-Gly-Asp-Gly-Hse-Gly-Thr-Ile-Pro] (Palmitoyl-S[Dap][dPip]GDG[hSer]G[d(aThr)]IP; lactam 2-C)
- antimicrobial activity (Bacillus subtilis [2]; no calcium supplements): none of them were active
- PBA dependence of bacterial growth suppression (Bacillus subtilis [2]): only able to suppress bacterial growth in the presence of PBA

SMILES: N#Cc1ccc(B(O)O)cc1 [4-cyanophenylboronic acid]
- growth inhibitory zone, boron species in combination with B1 (Bacillus subtilis [1]): effective

SMILES: O=Cc1ccccc1B(O)O [2-formylphenylboronic acid]
- growth inhibitory zone, boron species in combination with B1 (Bacillus subtilis [1]): effective

SMILES: OB(O)c1cccc(O)c1 [3-hydroxylphenylboronic acid]
- growth inhibitory zone, boron species in combination with B1 (Bacillus subtilis [1]): effective
